Measured values: the supplement of paper PMC10307832

Legend:
Test in all cases: relative viability (nuclei count vs DMSO), 5 days (fraction); higher = more cells survive
Shikonin + AZD7762 = compound: CC(C)=CC[C@@H](O)C1=CC(=O)c2c(O)ccc(O)c2C1=O [Shikonin] + NC(=O)Nc1cc(-c2cccc(F)c2)sc1C(=O)N[C@H]1CCCNC1 [AZD7762] (partner 0.2 µM)
How it was run: (§1)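 Relative viability is defined as nuclei in treated wells over nuclei in vehicle wells. Duplicate plates were run and medians reported. Lung cancer cell lines in 1536-well plates were dosed by pin tool one day after seeding, with one drug or with a fixed anchor-drug dose plus five library-drug doses (not always all listed) in √10 steps, and nuclei were counted after 5 days.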

[1] = compound: CC(C)N(CCCNC(=O)Nc1ccc(C(C)(C)C)cc1)C[C@H]1O[C@@H](n2ccc3c(N)ncnc32)[C@H](O)[C@@H]1O + Nc1ncn([C@H]2C[C@H](O)[C@@H](CO)O2)c(=O)n1 [Decitabine] (partner 2 µM)
How it was run: as §1

[2] = compound: CC(C)N(CCCNC(=O)Nc1ccc(C(C)(C)C)cc1)C[C@H]1O[C@@H](n2ccc3c(N)ncnc32)[C@H](O)[C@@H]1O + C[C@@H](Oc1cc(-c2cnn(C3CCNCC3)c2)cnc1N)c1c(Cl)ccc(F)c1Cl [Crizotinib] (partner 1 µM)
How it was run: as §1

Shikonin + Palbociclib = compound: CC(C)=CC[C@@H](O)C1=CC(=O)c2c(O)ccc(O)c2C1=O [Shikonin] + CC(=O)c1c(C)c2cnc(Nc3ccc(N4CCNCC4)cn3)nc2n(C2CCCC2)c1=O [Palbociclib] (partner 0.5 µM)
How it was run: as §1

Row | Cell Line | relative viability (Shikonin + AZD7762; first compound 0.01 µM) | relative viability (Shikonin + AZD7762; first compound 0.1 µM) | relative viability (Shikonin + AZD7762; first compound 0.3162 µM) | relative viability (Shikonin + AZD7762; first compound 1 µM) | relative viability ([1]; first compound 0.08 µM) | relative viability ([1]; first compound 0.8 µM) | relative viability ([1]; first compound 2.53 µM) | relative viability ([1]; first compound 8 µM) | relative viability ([2]; first compound 0.08 µM) | relative viability ([2]; first compound 0.253 µM) | relative viability ([2]; first compound 0.8 µM) | relative viability ([2]; first compound 2.53 µM) | relative viability ([2]; first compound 8 µM) | relative viability (Shikonin + Palbociclib; first compound 0.01 µM) | relative viability (Shikonin + Palbociclib; first compound 0.1 µM) | relative viability (Shikonin + Palbociclib; first compound 0.3162 µM) | relative viability (Shikonin + Palbociclib; first compound 1 µM) | relative viability ([1]; first compound 0.253 µM)
1 | NCI-H1792 | 0.663 | 0.618 | 0.604 | 0.694 | 0.527 | 0.56 | 0.529 | 0.607 | 0.975 | 0.919 | 1.01 | 0.915 | 1.03 | 0.717 | 0.493 | 0.729 | 0.7 | 
2 | ChaGo-K-1 | 0.942 | 0.906 | 0.913 | 0.876 | 0.468 | 0.494 | 0.522 | 0.505 | 1.16 | 1.22 | 1.2 | 1.14 | 1.08 | 0.977 | 1.09 | 0.968 | 0.968 | 0.545
3 | NCI-H727 | 0.682 | 0.584 | 0.732 | 0.647 | 0.907 | 0.885 | 0.905 | 0.973 | 0.767 | 0.837 | 0.899 | 0.93 | 0.854 | 0.713 | 0.603 | 0.678 | 0.67 | 0.687
4 | LK-2 | 0.368 | 0.428 | 0.424 | 0.231 | 0.308 | 0.388 | 0.325 | 0.22 | 0.269 | 0.232 | 0.217 | 0.261 | 0.229 | 0.772 | 0.869 | 0.773 | 0.664 | 0.293
5 | 201T | 0.638 | 0.657 | 0.625 | 0.603 | 0.841 |  | 0.876 | 0.844 | 1.01 | 1.01 | 1.09 | 1.03 | 1.04 | 0.346 | 0.413 | 0.331 | 0.387 | 0.889
